From ChEMBL document CHEMBL4602725 (J Med Chem, 2020)

How the values were obtained:
Histone deacetylase 1 [1] = target: T1, Histone deacetylase 1 (Homo sapiens, UniProt Q13547); test: Inhibition of human recombinant HDAC1 pre-incubated for 30 mins before Ac-Leu- Gly-Lys(Ac)-AMC substrate addition and measured after 90 mins by fluorescence based assay
MDA-MB-231 [2] = test: Cytotoxicity against human MDA-MB-231 cells assessed as increase in intracellular caspase 3/7 release incubated for 72 hrs by Caspase-Glo 3/7 assay; conditions: MDA-MB-231, 72 h
A549 [3] = test: Cytotoxicity against human A549 cells assessed as reduction in cell viability incubated for 72 hrs by MTT assay; conditions: A549, 72 h
MM96L [4] = test: Cytotoxicity against human MM96L cells assessed as reduction in cell viability incubated for 72 hrs by MTT assay
Histone deacetylase 2 = Histone deacetylase 2 (Homo sapiens, UniProt Q92769); test: Inhibition of human recombinant HDAC2 pre-incubated for 30 mins before Ac-Leu- Gly-Lys(Ac)-AMC substrate addition and measured after 90 mins by fluorescence based assay
Histone deacetylase 3 = Histone deacetylase 3 (Homo sapiens, UniProt O15379); test: Inhibition of human recombinant HDAC3 pre-incubated for 30 mins before Ac-Leu- Gly-Lys(Ac)-AMC substrate addition and measured after 90 mins by fluorescence based assay
NFF [5] = test: Cytotoxicity against human NFF cells assessed as increase in intracellular caspase 3/7 release incubated for 72 hrs by Caspase-Glo 3/7 assay
NFF [6] = test: Cytotoxicity against human NFF cells assessed as reduction in cell viability incubated for 72 hrs by MTT assay
Histone deacetylase 1 [7] = target: T1, Histone deacetylase 1; test: Inhibition of HDAC1 in human MM96L cells assessed as activation of histone H4 acetylation at Lys5, Lys8, Lys12 and Lys16 residues by Western blot analysis; assay type: cell-based
A549 [8] = test: Cytotoxicity against human A549 cells assessed as increase in intracellular caspase 3/7 release incubated for 72 hrs by Caspase-Glo 3/7 assay; conditions: A549, 72 h
HeLa [9] = test: Cytotoxicity against human HeLa cells assessed as reduction in cell viability incubated for 72 hrs by MTT assay
MM96L [10] = test: Cytotoxicity against human MM96L cells assessed as increase in intracellular caspase 3/7 release incubated for 72 hrs by Caspase-Glo 3/7 assay
Histone deacetylase 8 = target: T2, Histone deacetylase 8 (Homo sapiens, UniProt Q9BY41); test: Inhibition of human recombinant HDAC8 pre-incubated for 30 mins before Ac-Leu- Gly-Lys(Ac)-AMC substrate addition and measured after 90 mins by fluorescence based assay
T2 sequence (Q9BY41 whole entry): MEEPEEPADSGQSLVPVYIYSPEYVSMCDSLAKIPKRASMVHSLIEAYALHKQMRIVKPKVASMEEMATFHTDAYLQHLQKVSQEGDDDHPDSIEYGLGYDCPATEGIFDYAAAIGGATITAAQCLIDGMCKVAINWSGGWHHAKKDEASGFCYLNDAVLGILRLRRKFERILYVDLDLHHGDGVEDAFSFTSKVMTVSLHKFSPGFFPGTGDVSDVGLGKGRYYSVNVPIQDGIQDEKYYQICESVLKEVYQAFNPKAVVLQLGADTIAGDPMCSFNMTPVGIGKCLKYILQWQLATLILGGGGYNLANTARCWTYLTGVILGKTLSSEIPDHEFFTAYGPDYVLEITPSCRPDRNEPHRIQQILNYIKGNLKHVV

MDA-MB-231 [11] = test: Cytotoxicity against human MDA-MB-231 cells assessed as reduction in cell viability incubated for 72 hrs by MTT assay; conditions: MDA-MB-231, 72 h
HT-29 [12] = test: Cytotoxicity against human HT-29 cells assessed as increase in intracellular caspase 3/7 release incubated for 72 hrs by Caspase-Glo 3/7 assay; conditions: HT-29, 72 h
HT-29 [13] = test: Cytotoxicity against human HT-29 cells assessed as reduction in cell viability incubated for 72 hrs by MTT assay; conditions: HT-29, 72 h
HeLa [14] = test: Cytotoxicity against human HeLa cells assessed as increase in intracellular caspase 3/7 release incubated for 72 hrs by Caspase-Glo 3/7 assay

Sequence of Histone deacetylase 3 (O15379 whole entry): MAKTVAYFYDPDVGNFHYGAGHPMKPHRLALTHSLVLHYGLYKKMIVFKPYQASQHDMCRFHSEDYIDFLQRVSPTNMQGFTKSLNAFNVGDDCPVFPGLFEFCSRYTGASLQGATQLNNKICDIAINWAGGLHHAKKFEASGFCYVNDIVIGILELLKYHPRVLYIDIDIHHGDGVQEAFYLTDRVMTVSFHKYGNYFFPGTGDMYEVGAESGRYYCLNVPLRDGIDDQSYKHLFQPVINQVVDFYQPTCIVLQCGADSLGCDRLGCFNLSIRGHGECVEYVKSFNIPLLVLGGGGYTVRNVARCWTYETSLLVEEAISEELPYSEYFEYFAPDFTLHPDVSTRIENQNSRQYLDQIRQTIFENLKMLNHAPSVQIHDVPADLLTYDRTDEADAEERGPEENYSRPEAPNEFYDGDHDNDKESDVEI
T1 sequence (Q13547 whole entry): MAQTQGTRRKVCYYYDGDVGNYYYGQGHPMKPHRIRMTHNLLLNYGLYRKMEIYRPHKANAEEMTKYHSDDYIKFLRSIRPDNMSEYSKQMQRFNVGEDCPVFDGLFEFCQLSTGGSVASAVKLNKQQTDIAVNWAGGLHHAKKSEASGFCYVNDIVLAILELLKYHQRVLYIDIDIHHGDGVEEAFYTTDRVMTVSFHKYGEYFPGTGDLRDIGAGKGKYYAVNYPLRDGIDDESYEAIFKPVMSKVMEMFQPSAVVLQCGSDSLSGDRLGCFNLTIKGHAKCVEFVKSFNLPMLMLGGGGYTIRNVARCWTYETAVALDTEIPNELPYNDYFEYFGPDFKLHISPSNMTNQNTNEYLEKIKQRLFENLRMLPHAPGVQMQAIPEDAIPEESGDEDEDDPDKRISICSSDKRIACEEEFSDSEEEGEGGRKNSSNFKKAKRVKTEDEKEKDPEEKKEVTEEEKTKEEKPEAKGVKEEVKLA
Sequence of Histone deacetylase 2 (Q92769 whole entry): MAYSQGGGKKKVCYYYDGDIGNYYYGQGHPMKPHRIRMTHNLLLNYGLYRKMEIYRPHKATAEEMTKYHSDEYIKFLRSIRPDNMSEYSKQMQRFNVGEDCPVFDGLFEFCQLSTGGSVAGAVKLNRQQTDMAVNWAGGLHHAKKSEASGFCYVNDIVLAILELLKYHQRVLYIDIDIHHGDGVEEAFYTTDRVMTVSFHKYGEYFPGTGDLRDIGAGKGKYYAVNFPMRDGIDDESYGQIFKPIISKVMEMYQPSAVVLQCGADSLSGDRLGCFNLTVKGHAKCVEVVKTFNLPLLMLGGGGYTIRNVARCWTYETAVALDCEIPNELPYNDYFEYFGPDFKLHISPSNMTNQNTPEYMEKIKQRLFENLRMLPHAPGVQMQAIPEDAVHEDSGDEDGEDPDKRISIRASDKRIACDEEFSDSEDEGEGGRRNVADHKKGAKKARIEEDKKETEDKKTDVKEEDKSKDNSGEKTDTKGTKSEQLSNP

Row | IC50 (Histone deacetylase 1 [1]) [nM] | SMILES | also measured
1 | 43 | O=C(NO)c1ccc(NC(=O)C2(c3ccc4ccccc4c3)CCCCC2)cc1 | –
2 | 15 | O=C(NO)c1ccc(NC(=O)C2(c3ccccc3)CCCCC2)cc1 | –
3 | 28 | O=C(NO)c1ccc(NC(=O)C2(c3ccccc3)CCCC2)cc1 | –
4 | 738 | CCCC(CCC)C(=O)Nc1ccc(C(=O)NO)cc1 | –
5 | 75 | O=C(Cc1ccccc1)Nc1ccc(C(=O)NO)cc1 | –
6 | 41 | O=C(NO)c1ccc(NC(=O)C2(c3ccc(F)cc3)CCCC2)cc1 | –
7 | 250 | O=C(NO)c1ccc(NC(=O)C(c2ccccc2)c2ccccc2)cc1 | –
8 | 23 | O=C(NO)c1ccc(NC(=O)C2(c3c[nH]c4ccccc34)CCCC2)cc1 | –
9 | 42 | O=C(NO)c1ccc(NC(=O)C2(c3ccc(-c4ccccc4)c(F)c3)CCCC2)cc1 | –
10 | 430 | CCC(CC)(C(=O)Nc1ccc(C(=O)NO)cc1)c1ccccc1 | –
11 | 16 | O=C(NO)c1ccc(NC(=O)C2(c3ccc(-c4ccccc4)cc3)CCCC2)cc1 | –
12 | 7 | O=C(NO)c1ccc(NC(=O)C2(c3ccc(Br)cc3)CCCC2)cc1 | –
13 | 8680 | CC(C)C(C(=O)Nc1ccc(C(=O)NO)c(Cl)c1)c1ccccc1 (racemic) | –
14 | 6 | O=C(NO)c1ccc(NC(=O)C2(c3ccc(Cl)c(Cl)c3)CCOCC2)cc1 | –
15 | 132 | O=C(NO)c1ccc(NC(=O)C2(c3ccccc3)CCCC2)nc1 | –
16 | 12 | O=C(NO)c1ccc(NC(=O)C2(c3csc(-c4ccccc4)n3)CCCC2)cc1 | –
17 | 218 | CC(C)(C(=O)Nc1ccc(C(=O)NO)cc1)c1ccccc1 | –

Row | IC50 (Histone deacetylase 1 [1]) [nM] | SMILES | also measured
18 | 29 | COc1ccc(C2(C(=O)Nc3ccc(C(=O)NO)cc3)CCCCC2)cc1OC | –
19 | 93 | O=C(NO)c1ccc(NC(=O)C2(c3ccccc3)CC2)cc1 | –
20 | 1060 | CC(C)C(C(=O)Nc1ccc(C(=O)NO)cc1Cl)c1ccccc1 (racemic) | –
21 | 231 | CC(C)C(C(=O)Nc1ccc(C(=O)Nc2ccccc2N)cc1)c1ccccc1 (racemic) | –
22 | > 10000 | O=C(NO)c1ccc(NC(=O)C2(c3csc(-c4cccc(Oc5ccccc5)c4)n3)CCCC2)cc1 | –
23 | 12 | O=C(NO)c1ccc(NC(=O)C2(c3ccc(Cl)cc3)CCCC2)cc1 | –
24 | 22 | CC(C)C(C(=O)Nc1ccc(C(=O)NO)cn1)c1ccccc1 (stereo unspecified) | –
25 | 28 | O=C(NO)c1ccc(NC(=O)C2(c3ccccc3)CCOCC2)cc1 | –
26 | 22 | Nc1ccc(C2(C(=O)Nc3ccc(C(=O)NO)cc3)CCOCC2)cc1 | –
27 | 15 | COc1cccc(-c2nc(C3(C(=O)Nc4ccc(C(=O)NO)cc4)CCCC3)cs2)c1 | –
28 | 0.94 | CC(=O)Nc1ccccc1-c1ccc(C2(C(=O)Nc3ccc(C(=O)NO)cc3)CCCC2)cc1 | –
29 | 2120 | CC(C)C(NC(=O)c1ccc(C(=O)NO)cc1)c1ccccc1 (racemic) | –
30 | 439 | CC(C)C(C(=O)N(C)c1ccc(C(=O)NO)cc1)c1ccccc1 (racemic) | –
31 | 9 | COc1ccc(C2(C(=O)Nc3ccc(C(=O)NO)cc3)CCCCC2)cc1-c1ccccc1NC(C)=O | –
32 | 3 | O=C(NO)c1ccc(NC(=O)C2(c3c[nH]c(-c4ccccc4)n3)CCCC2)cc1 | IC50 (Histone deacetylase 2): 21 nM; IC50 (Histone deacetylase 3): 10 nM; IC50 (Histone deacetylase 8): 41 nM
33 | 11 | O=C(NO)c1ccc(NC(=O)C2(c3ccc4ccccc4c3)CCCC2)cc1 | –

The next lines start with the compound.

Row | SMILES | IC50 (Histone deacetylase 1 [1]) [nM] | also measured
34 | COc1ccc(C2(C(=O)Nc3ccc(C(=O)NO)cc3)CCCCC2)cc1-c1cn[nH]c1 | 3 | –
35 | C/C(=N\O)c1sccc1-c1ccc(C2(C(=O)Nc3ccc(C(=O)NO)cc3)CCCC2)cc1 | 43 | –
36 | O=C(NO)c1ccc(NC(=O)C2(c3csc(-c4ccccc4Oc4ccccc4)n3)CCCC2)cc1 | 431 | –
37 | O=C(NO)c1ccc(NC(=O)C2(c3ccc4ccccc4c3)CCOCC2)cc1 | – | EC50 (MDA-MB-231 [2]): 300 nM; IC50 (A549 [3]): 100 nM; IC50 (MM96L [4]): 20 nM; IC50 (Histone deacetylase 2): 8 nM; IC50 (Histone deacetylase 3): 2 nM; EC50 (NFF [5]): 4300 nM; IC50 (NFF [6]): 400 nM; inhibition (Histone deacetylase 1 [7]): Dose-dependent effect; EC50 (A549 [8]): 2600 nM; IC50 (HeLa [9]): 30 nM; EC50 (MM96L [10]): 60 nM; IC50 (Histone deacetylase 8): 44 nM; IC50 (MDA-MB-231 [11]): 100 nM; EC50 (HT-29 [12]): 200 nM; IC50 (HT-29 [13]): 40 nM; EC50 (HeLa [14]): 700 nM
38 | O=C(NO)c1ccc(NC(=O)C2(c3ccc([N+](=O)[O-])cc3)CCOCC2)cc1 | 9 | –
39 | Cc1n[nH]c(C)c1-c1ccc(C2(C(=O)Nc3ccc(C(=O)NO)cc3)CCCC2)cc1 | 8 | –
40 | O=C(NO)c1ccc(NC(=O)C2(c3ccc(-c4cn[nH]c4)cc3)CCOCC2)cc1 | 2 | –
41 | COc1ccc(C2(C(=O)Nc3ccc(C(=O)NO)cc3)CCCCC2)cc1Br | 31 | –
42 | Nc1cccc(-c2ccc(C3(C(=O)Nc4ccc(C(=O)NO)cc4)CCCC3)cc2)c1 | 4 | –
43 | O=C(NO)c1ccc(NC(=O)C2(c3ccc(-c4cc[nH]n4)cc3)CCCC2)cc1 | 4 | –
44 | O=C(NO)c1ccc(NC(=O)C2(c3ccc(-c4cn[nH]c4)cc3)CCCCC2)cc1 | 2 | IC50 (Histone deacetylase 2): 10 nM; IC50 (Histone deacetylase 3): 2 nM; IC50 (Histone deacetylase 8): 69 nM
45 | O=C(NO)c1ccc(NC(=O)C2(c3c[nH]c(-c4ccc([N+](=O)[O-])cc4)n3)CCCC2)cc1 | 6 | –
46 | O=C(NO)c1ccc(NC(=O)C2(c3ccc(Br)cc3)CCOCC2)cc1 | 2 | IC50 (Histone deacetylase 2): 17 nM; IC50 (Histone deacetylase 3): 4 nM; EC50 (Histone deacetylase 1 [7]): 600 nM; inhibition (Histone deacetylase 1 [7]): Dose-dependent effect; IC50 (Histone deacetylase 8): 59 nM
47 | O=C(NO)c1ccc(NC(=O)C2(c3ccc(-c4ccc(OCc5ccccc5)nc4)cc3)CCCC2)cc1 | 240 | –
48 | CC(=O)Nc1cccc(-c2ccc(C3(C(=O)Nc4ccc(C(=O)NO)cc4)CCCC3)cc2)c1 | 5 | –
49 | O=C(NO)c1ccc(NC(=O)C2(c3ccccc3)CCNCC2)cc1 | 12 | –
50 | COc1ccc(C2(C(=O)Nc3ccc(C(=O)NO)cc3)CCCCC2)cc1-c1cccc(N)c1 | 10 | –
51 | CC(C)C(C(=O)Nc1ccc(C(=O)NO)cc1)c1ccccc1 (racemic) | – | EC50 (MDA-MB-231 [2]): 2400 nM; IC50 (A549 [3]): 1500 nM; IC50 (MM96L [4]): 300 nM; EC50 (NFF [5]): 24300 nM; IC50 (NFF [6]): 500 nM; EC50 (A549 [8]): 15600 nM; IC50 (HeLa [9]): 700 nM; EC50 (MM96L [10]): 900 nM; IC50 (MDA-MB-231 [11]): 1500 nM; EC50 (HT-29 [12]): 1700 nM; IC50 (HT-29 [13]): 600 nM; EC50 (HeLa [14]): 8100 nM
52 | Cc1[nH]ncc1-c1ccc(C2(C(=O)Nc3ccc(C(=O)NO)cc3)CCCC2)cc1 | 5 | –
53 | O=C(NO)c1ccc(NC(=O)C2(c3ccc(-c4ccc5[nH]ccc5c4)cc3)CCCC2)cc1 | 8 | –
54 | O=C(NO)c1ccc(NC(=O)C2(c3ccc(C(F)(F)F)c(F)c3)CCCC2)cc1 | 227 | –
55 | O=C(O)c1cccc(-c2ccc(C3(C(=O)Nc4ccc(C(=O)NO)cc4)CCCC3)cc2)c1 | 2 | EC50 (MDA-MB-231 [2]): > 100000 nM; IC50 (A549 [3]): > 100000 nM; IC50 (MM96L [4]): > 100000 nM; IC50 (Histone deacetylase 2): 13 nM; IC50 (Histone deacetylase 3): 7 nM; EC50 (A549 [8]): > 100000 nM; IC50 (HeLa [9]): > 100000 nM; EC50 (MM96L [10]): > 100000 nM; IC50 (Histone deacetylase 8): 118 nM; IC50 (MDA-MB-231 [11]): > 100000 nM; EC50 (HT-29 [12]): > 100000 nM; IC50 (HT-29 [13]): > 100000 nM; EC50 (HeLa [14]): > 100000 nM
56 | O=C(NO)c1ccc(NC(=O)C2(c3ccc(-c4cn[nH]c4)cc3)CCCC2)cc1 | 3 | –
57 | O=C(NO)c1ccc(NC(=O)C2(c3ccc(Br)cc3)CCCCC2)cc1 | 63 | –
58 | CC(=O)Nc1ccc(N)cc1-c1ccc(C2(C(=O)Nc3ccc(C(=O)NO)cc3)CCCCC2)cc1 | 10 | –
59 | O=C(NO)c1ccc(NC(=O)C2(c3ccc4c(c3)OCO4)CCCCC2)cc1 | 42 | –
60 | O=C(NO)c1ccc(NC(=O)C2(c3c[nH]c(-c4ccc(Br)cc4)n3)CCCC2)cc1 | 10 | –
61 | O=C(NO)c1ccc(NC(=O)C2(c3ccc(-c4cccnc4)cc3)CCCC2)cc1 | 5 | –
